# Biological target: T1, CDK2 (Homo sapiens, UniProt P24941)
# T1 construct: endogenous in cells; host or cells: OVCAR3 cells
# Assay: Phospho-RB measurement in OVCAR3 cells (HTRF phospho-RB S807/811)
# Assay type: cell-based
# Settings: phosphorylation of RB protein at S807/811, HTRF, 24 h compound treatment, 0.3 to 10,000 nM, read-out: pRb (uM)
# Method in brief: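 IC50 values come from four-parameter logistic fits of the DMSO-normalised 665/620 nm TR-FRET ratio for phospho-RB (S807/811). Antibody detection ran 4 h at room temperature.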
row,SMILES,IC50 [µM]
1,"CC1CCC(C)N1c1nc(-c2cccc(NS(=O)(=O)c3c(F)cccc3F)c2F)c(-c2ccnc(NC3CC4(C3)CS(=O)(=O)C4)n2)s1 (stereo not drawn) [Example 65, N-(3-(2-(2,5-dimethylpyrrolidin-1-yl)-5-(2-((2,2-dioxido-2-thiaspiro[3.3]heptan-6-yl)amino)pyrimidin-4-yl)thiazol-4-yl)-2-fluorophenyl)-2,6-difluorobenzenesulfonamide]",0.39
2,"CN1CC2CCC(C1)N2c1nc(-c2cccc(NS(=O)(=O)c3c(F)cccc3OC(F)F)c2F)c(-c2ccnc(NC3CC4(C3)CS(=O)(=O)C4)n2)s1 [Example 66, 2-(difluoromethoxy)-N-(3-(5-(2-((2,2-dioxido-2-thiaspiro[3.3]-heptan-6-yl)amino)pyrimidin-4-yl)-2-(3-methyl-3,8-diazabicyclo[3.2.1]octan-8-yl)thiazol-4-yl)-2-fluorophenyl)-6-fluorobenzenesulfonamide]",0.15
3,"CC1CC(C)N1c1nc(-c2cccc(NS(=O)(=O)c3c(F)cccc3F)c2F)c(-c2ccnc(NC3CC4(C3)CS(=O)(=O)C4)n2)s1 (stereo not drawn) [Example 71, N-(3-(2-(2,4-dimethylazetidin-1-yl)-5-(2-((2,2-dioxido-2-thiaspiro[3.3]heptan-6-yl)amino)pyrimidin-4-yl)thiazol-4-yl)-2-fluorophenyl)-2,6-difluorobenzenesulfonamide]",18.9
4,"O=S1(=O)C[C@@H]2[C@H](C1)[C@@H]2Nc1nccc(-c2sc(C34CCC(CC3)C4)nc2-c2cccc(NS(=O)(=O)c3c(F)cccc3F)c2F)n1 [Example 73, N-(3-(2-(bicyclo[2.2.1]heptan-1-yl)-5-(2-(((1R,5S,6s)-3,3-dioxido-3-thiabicyclo[3.1.0]hexan-6-yl)amino)pyrimidin-4-yl)thiazol-4-yl)-2-fluorophenyl)-2,6-difluorobenzenesulfonamide]",0.6
5,"COc1cccc(C(F)(F)F)c1S(=O)(=O)Nc1cccc(-c2nc(N3C4CCC3CN(C)C4)sc2-c2ccnc(NC3CC4(C3)CS(=O)(=O)C4)n2)c1F [Example 74, N-(3-(5-(2-((2,2-dioxido-2-thiaspiro[3.3]heptan-6-yl)amino)-pyrimidin-4-yl)-2-(3-methyl-3,8-diazabicyclo[3.2.1]octan-8-yl)thiazol-4-yl)-2-fluorophenyl)-2-methoxy-6-(trifluoromethyl)benzenesulfonamide]",0.63
6,"CN1CC2CCC(C1)N2c1nc(-c2cccc(NS(=O)(=O)c3c(OC(F)F)cccc3C(F)(F)F)c2F)c(-c2ccnc(NC3CC4(C3)CS(=O)(=O)C4)n2)s1 [Example 75, 2-(difluoromethoxy)-N-(3-(5-(2-((2,2-dioxido-2-thiaspiro[3.3]heptan-6-yl)amino)pyrimidin-4-yl)-2-(3-methyl-3,8-diazabicyclo[3.2.1]octan-8-yl)thiazol-4-yl)-2-fluorophenyl)-6-(trifluoromethyl)benzenesulfonamide]",0.85
7,"O=S1(=O)C[C@@H]2[C@H](C1)[C@@H]2Nc1nccc(-c2sc(C34CC5CC(CC(C5)C3)C4)nc2-c2cccc(NS(=O)(=O)c3c(F)cccc3F)c2F)n1 [Example 76, N-(3-(2-((3R,5R,7R)-adamantan-1-yl)-5-(2-(((1R,5S,6s)-3,3-dioxido-3-thiabicyclo[3.1.0]hexan-6-yl)amino)pyrimidin-4-yl)thiazol-4-yl)-2-fluorophenyl)-2,6-difluorobenzenesulfonamide]",0.87
8,"O=S1(=O)C[C@@H]2[C@H](C1)[C@H]2Nc1nccc(-c2sc(C34CC5CC(CC(C5)C3)C4)nc2-c2cccc(NS(=O)(=O)c3c(F)cccc3F)c2F)n1 [Example 77, N-(3-(2-((3R,5R,7R)-adamantan-1-yl)-5-(2-(((1R,5S,6r)-3,3-dioxido-3-thiabicyclo[3.1.0]hexan-6-yl)amino)pyrimidin-4-yl)thiazol-4-yl)-2-fluorophenyl)-2,6-difluorobenzenesulfonamide]",0.24
9,O=S1(=O)CC2(CC(Nc3nccc(-c4sc(C5(C(F)F)CC5)nc4-c4cccc(NS(=O)(=O)c5c(F)cccc5OC(F)F)c4F)n3)C2)C1 [Example 81],0.14

# Compounds with a lower IC50, results first:
row,IC50 [µM],SMILES
1,0.03,"C[C@H]1CN(C)C[C@H](C)N1c1nc(-c2cccc(NS(=O)(=O)c3c(F)cccc3C(F)(F)F)c2F)c(-c2ccnc(NC3CC4(C3)CS(=O)(=O)C4)n2)s1 [Example 70, N-(3-(5-(2-((2,2-dioxido-2-thiaspiro[3.3]heptan-6-yl)amino)-pyrimidin-4-yl)-2-((2S,6S)-2,4,6-trimethylpiperazin-1-yl)thiazol-4-yl)-2-fluorophenyl)-2-fluoro-6-(trifluoromethyl)benzenesulfonamide]"
2,0.061,"O=S1(=O)C[C@@H]2[C@H](C1)[C@H]2Nc1nccc(-c2sc(C3(C(F)F)CC3)nc2-c2cccc(NS(=O)(=O)c3c(F)cccc3C(F)(F)F)c2F)n1 [Example 72, N-(3-(2-(1-(difluoromethyl)cyclopropyl)-5-(2-(((1R,5S,6r)-3,3-dioxido-3-thiabicyclo[3.1.0]hexan-6-yl)amino)pyrimidin-4-yl)thiazol-4-yl)-2-fluorophenyl)-2-fluoro-6-(trifluoromethyl)benzenesulfonamide]"
3,0.06,"C[C@H]1COC[C@H](C)N1c1nc(-c2cccc(NS(=O)(=O)c3c(F)cccc3C(F)(F)F)c2F)c(-c2ccnc(NC3CC4(C3)CS(=O)(=O)C4)n2)s1 [Example 79, N-(3-(2-((3S,5S)-3,5-dimethylmorpholino)-5-(2-((2,2-dioxido-2-thiaspiro[3.3]heptan-6-yl)amino)pyrimidin-4-yl)thiazol-4-yl)-2-fluorophenyl)-2-fluoro-6-(trifluoromethyl)benzenesulfonamide]"
4,0.06,"O=S1(=O)CC2(CC(Nc3nccc(-c4sc(C5(C(F)F)CC5)nc4-c4cccc(NS(=O)(=O)c5c(F)cccc5C(F)(F)F)c4F)n3)C2)C1 [Example 80, N-(3-(2-(1-(difluoromethyl)cyclopropyl)-5-(2-((2,2-dioxido-2-thiaspiro[3.3]heptan-6-yl)amino)pyrimidin-4-yl)thiazol-4-yl)-2-fluorophenyl)-2-fluoro-6-(trifluoromethyl)benzenesulfonamide]"
5,0.13,"O=S1(=O)CC2(CC(Nc3nccc(-c4sc(N5C6CCC5CN(C5CC5)C6)nc4-c4cccc(NS(=O)(=O)c5c(F)cccc5C(F)(F)F)c4F)n3)C2)C1 [Example 82, N-(3-(2-(3-cyclopropyl-3,8-diazabicyclo[3.2.1]octan-8-yl)-5-(2-((2,2-dioxido-2-thiaspiro[3.3]heptan-6-yl)amino)pyrimidin-4-yl)thiazol-4-yl)-2-fluorophenyl)-2-fluoro-6-(trifluoromethyl)benzenesulfonamide]"
6,0.04,"O=S1(=O)CC2(CC(Nc3nccc(-c4sc(C5(C(F)F)CCC5)nc4-c4cccc(NS(=O)(=O)c5c(F)cccc5C(F)(F)F)c4F)n3)C2)C1 [Example 83, N-(3-(2-(1-(difluoromethyl)cyclobutyl)-5-(2-((2,2-dioxido-2-thiaspiro[3.3]heptan-6-yl)amino)pyrimidin-4-yl)thiazol-4-yl)-2-fluorophenyl)-2-fluoro-6-(trifluoromethyl)benzenesulfonamide]"
7,0.03,"O=S1(=O)CC2(CC(Nc3nccc(-c4sc(C5(C(F)(F)F)CCC5)nc4-c4cccc(NS(=O)(=O)c5c(F)cccc5C(F)(F)F)c4F)n3)C2)C1 [Example 84, N-(3-(5-(2-((2,2-dioxido-2-thiaspiro[3.3]heptan-6-yl)amino)-pyrimidin-4-yl)-2-(1-(trifluoromethyl)cyclobutyl)thiazol-4-yl)-2-fluorophenyl)-2-fluoro-6-(trifluoromethyl)benzenesulfonamide]"
8,0.03,"O=S1(=O)CC2(CC(Nc3nccc(-c4sc(C5(C(F)(F)F)CC5)nc4-c4cccc(NS(=O)(=O)c5c(F)cccc5C(F)(F)F)c4F)n3)C2)C1 [Example 85, N-(3-(5-(2-((2,2-dioxido-2-thiaspiro[3.3]heptan-6-yl)amino)-pyrimidin-4-yl)-2-(1-(trifluoromethyl)cyclopropyl)thiazol-4-yl)-2-fluorophenyl)-2-fluoro-6-(trifluoromethyl)benzenesulfonamide]"
9,0.04,"O=S1(=O)CC2(CC(Nc3nccc(-c4sc(C56CC(F)(C5)C6)nc4-c4cccc(NS(=O)(=O)c5c(F)cccc5C(F)(F)F)c4F)n3)C2)C1 [Example 86, N-(3-(5-(2-((2,2-dioxido-2-thiaspiro[3.3]heptan-6-yl)amino)-pyrimidin-4-yl)-2-(3-fluorobicyclo[1.1.1]pentan-1-yl)thiazol-4-yl)-2-fluorophenyl)-2-fluoro-6-(trifluoromethyl)benzenesulfonamide]"
10,0.077,"CS(=O)(=O)[C@H]1CC[C@@H](Nc2nccc(-c3sc(C45CC(F)(C4)C5)nc3-c3cccc(NS(=O)(=O)c4c(F)cccc4C(F)(F)F)c3F)n2)CC1 [Example 87, 2-fluoro-N-(2-fluoro-3-(2-(3-fluorobicyclo[1.1.1]pentan-1-yl)-5-(2-(((1s,4s)-4-(methylsulfonyl)cyclohexyl)-amino)pyrimidin-4-yl)thiazol-4-yl)phenyl)-6-(trifluoromethyl)benzenesulfonamide]"
11,0.09,"O=S1(=O)CC2(CC(Nc3nccc(-c4sc(C56CC(C(F)(F)F)(C5)C6)nc4-c4cccc(NS(=O)(=O)c5c(F)cccc5C(F)(F)F)c4F)n3)C2)C1 [Example 88, N-(3-(5-(2-((2,2-dioxido-2-thiaspiro[3.3]heptan-6-yl)amino)-pyrimidin-4-yl)-2-(3-(trifluoromethyl)bicyclo[1.1.1]pentan-1-yl)thiazol-4-yl)-2-fluorophenyl)-2-fluoro-6-(trifluoromethyl)-benzenesulfonamide]"
12,0.12,"O=S1(=O)CC2(CC(Nc3nccc(-c4sc(C5(C(F)(F)F)CC5)nc4-c4cccc(NS(=O)(=O)c5c(F)cccc5F)c4F)n3)C2)C1 [Example 89, N-(3-(5-(2-((2,2-dioxido-2-thiaspiro[3.3]heptan-6-yl)amino)-pyrimidin-4-yl)-2-(1-(trifluoromethyl)cyclopropyl)thiazol-4-yl)-2-fluorophenyl)-2,6-difluorobenzenesulfonamide]"
